According to publication PMC9573605, “Exploring Nitric Oxide (NO)-Releasing Celecoxib Derivatives as Modulators of Radioresponse in Pheochromocytoma Cells” (Molecules, 2022):

What was measured:
[1] = design: method as in PMID 25547413; conditions: cited from earlier work
[2] = system: MPC-HIF2α tumor spheroids; assay: Spheroid regrowth assay with [177Lu]LuCl3 treatment; assay type: cell-based, mouse; conditions: 10 µM compound with 0.25 MBq [177Lu]LuCl3 for six days; for 14-day regrowth probability: controls 50%
Text: Radionuclide therapy is a fast-evolving treatment modality gaining more importance in treating cancer. For treatment of pheochromocytomas and paragangliomas, in particular, somatostatin type 2 receptor-targeted radionuclide therapy with [^177Lu]Lu-(Tyr^3)octreotate is currently investigated in clinical controlled trials (e.g., NCT04029428, NCT03923257, NCT03206060). To assess the additional effects of NO-COXIBs on the outcome of Lu-177 therapy, a simplified in vitro setup was used here, where MPC-HIF2α tumor spheroids were treated with 10 µM of the compounds and simultaneously 0.25 MBq of [^177Lu]LuCl3 for six days.
(§1) Genetically modified mouse pheochromocytoma (MPC) cells expressing a codon-optimized Epas1 gene (encoding HIF2α) were cultured as three-dimensional tumor spheroids as published elsewhere. External X-ray beam radiation treatment and [^177Lu]LuCl3 radionuclide treatment was performed as reported previously with some modifications. In brief, spheroids were irradiated with a 200 kV photon beam using a Maxishot X-ray system equipped with a Y.TU/320-D03 tube (YXLON, Hamburg, Germany), growth of spheroids (n = 6) with diameters between 300−400 µm was measured in response to one fixed radiation dose, 15 Gy for X-ray treatment, and 0.25 MBq/mL of [^177Lu]LuCl3 for radionuclide treatment corresponding to a cumulative dose of approximately 2 Gy delivered for 6 days. The applied radiation doses were selected based on the half-maximal spheroid control doses (SCD50) as previously determined for MPC HIF2α spheroids by us. Spheroids were considered as regrown at 100 µm increase in diameter compared to treatment start or at a diameter growth rate of 15 µm per day. Results are reported as spheroid regrowth probability (%).
(§2) Figure 5 Effects of NO-COXIBs on radiation treatments of MPC-HIF2α tumor spheroids. (A) Growth responses to X-ray treatment with a radiation dose of 15 Gy in combination with 10 µM NO-COXIBs added to the medium at indicated time points before or after irradiation. (B) Growth responses to [^177Lu]LuCl3 treatment with an initial activity concentration of 0.25 MBq/mL in combination with NO-COXIBs; log2 fold changes in diameter indicate the number of diameter doublings compared to treatment start; 14-day regrowth probability indicates the fraction of spheroids able to regrow within 14 days after treatment start; (black arrows) time point or duration of radiation treatment; (w/o) vehicle controls are shown as black lines; (Ce) celecoxib.

[3] = system: MPC-HIF2a spheroids; assay: Growth of non-irradiated tumor spheroids; assay type: cell-based, mouse; conditions: 10 µM compound, linear regression between 0 and 9 days
Description: (§3) As a first pilot study, growth responses of MPC-HIF2α spheroids were investigated after two different radiation treatments such as single-dose external beam irradiation (X-ray) and incubation with [^177Lu]LuCl3, respectively. NO-COXIBs were tested at 10 µM for additional effects on radiation treatments against a vehicle-treated control (w/o) and celecoxib (Ce).
4. Growth-rate of tumor spheroids in the presence of NO -COXIBS without radiation treatment
Compound Diameter growth rate
Table S2. Effects of NO-COXIBs on spheroid growth; diameter growth rates of non-irradiated MPC-HIF2a spheroids in presence of 10 µM of compounds determined from linear regression between 0 and 9 days after treatment start; (w/o) vehicle control treated with DMSO

[4] = system: MPC-HIF2α tumor spheroids; assay: Spheroid regrowth assay with external X-ray irradiation; assay type: cell-based, mouse; conditions: X-ray 15 Gy; 10 µM compound added 2 h post irradiation; controls 83%
Description: as §3
The log2-fold change in spheroid diameter is given as a standardized parameter for spheroid growth, which is positive for growing, near zero for stagnating and negative for shrinking spheroids. Furthermore, regrowth probabilities are given as a parameter to compare how many of the overall studied spheroids in one group recovered within 14 days. Radioprotective effects occurred when compounds were added 2 h before irradiation. In this setup, all compounds accelerated the increase in spheroid size during the regrowth phase compared to controls (Figure 5A, upper panel). Regrowth probabilities of 67–100% under NO-COXIB treatment remained however similar to controls (83%). Radiosensitizing effects occurred when compounds were added 2 h post irradiation. In this setup, all compounds decelerated the increase in spheroid size during the regrowth phase compared to controls.
as §1, §2

[5] = Lipophilicity logD7.4 by HPLC method; assay type: physicochemical; conditions: HPLC retention on ODP-50 4B column (Shodex Asahipak), phosphate buffer pH 7.4
Description: The lipophilicity of all synthesized compounds was determined as logD7.4, HPLC value by an HPLC method originally described by Donovan and Pescatore.
The logD7.4HPLC value was determined as previously reported by us utilizing an HPLC method originally described by Donovan and Pescatore.

[6] = Fluorometric NO release assay (Griess assay); assay type: physicochemical; conditions: 24 h, 37 °C, relative to initial molar amount of compound
Description: The nitric oxide releasing properties of the nitroester-derivatives 5a–d, 5f, and 6a–d were evaluated using a fluorometric Griess assay in the presence and absence of cysteine to determine thiol-dependent and spontaneous release of nitric oxide (Figure 3).
Nitric oxide release of compounds within 24 h at 37 °C was measured using the fluorometric nitric oxide microplate assay kit ab65327 (Abcam, Cambridge, UK). For measurement of spontaneous release, 1.8 nmol of compounds were incubated in 75 µL Dulbecco’s PBS containing 0.05% v/v residual DMSO and 2.5 mM DTPA (pH = 7.1) for 24 h at 37 °C. Thiol-dependent release was measured accordingly in presence of 2.5 mM cysteine. Two series of nitrate standards were prepared (0.2−1 nmol) in 75 µL incubation buffer, in presence or absence of cysteine, respectively. According to the manufacturer’s instructions, all nitrate content in samples and standards was enzymatically converted into nitrite through incubation with nitrate reductase for 2 h at room temperature, and the resulting nitrite content (total nitric oxide) was determined through reaction with 2,3-diaminonaphthalene followed by measurement of fluorescence intensity at λex/em = 360/450 nm using a microplate reader. Nitrite content in samples was calculated from linear regression of standards and expressed as relative nitric oxide release (%) normalized to the initial molar amount of compound. NONOate served as positive control.
Figure 3 Spontaneous and thiol-dependent NO^• release from NO-COXIBs; measured using fluorometric Griess assay (n = 2); relative release indicates the percentage of soluble nitrogen species (nitrate + nitrite) detected in the incubation buffer after 24 h compared to the initial molar amount of compounds; NO^• release of NONOate (positive control) exceeded the maximum detection limit; data presented as mean ± range.

[7] = system: A2058 cells; design: method as in PMID 26081289; conditions: 10 µM, DMSO control 6.6 Gy; cited from earlier work
[8] = system: Mel-Juso cells; design: method as in PMID 26081289; conditions: 10 µM, DMSO control 4.2 Gy; cited from earlier work

Structure (SMILES)	scavenging effects on OH•, O2•−, and OCl- [1]	14-day regrowth probability [2]	Diameter growth rate ± SEM [3] [µm/day]	14-day regrowth probability [4] [%]	chromatographic logD [5]	thiol-dependent NO release ([6]; 2.5 mM cysteine)	spontaneous NO release ([6]; absence of cysteine)	growth response (spheroid size) ([2]; compared to controls)	required radiation dose for 10% survival [7] [Gy]	required radiation dose for 10% survival [8] [Gy]
Cc1ccc(-c2cc(C(F)(F)F)nn2-c2ccc(S(N)(=O)=O)cc2)cc1 [celecoxib]	did not show any scavenging effects	40%	57.3 ± 4.0	0						
Cc1ccc(-c2c(Cl)c(CO[N+](=O)[O-])nn2-c2ccc(S(N)(=O)=O)cc2)cc1 [5a, [4-Chloro-1-(4-sulfamoylphenyl)-5-(p-tolyl)-1H-pyrazol-3-yl]methyl nitrate]		60–80%	54.1 ± 5.2	17	3.76	29–53%	10–22%	prevented spheroids from shrinking in size	5.2	3.2
